{"source": "patent US10633704B2", "about": "“Diagnostic and immunotherapy compositions and methods for disease states mediated by inhibitor-resistant CD8 T-cells” (priority 2010, dated 2020)", "tested_on": "CD8bm12-1 T cell clone", "experiment": "Proliferation assay (3H-thymidine) of CsA/RAPA-resistant CD8 T cell clone CD8bm12-1 activated by immobilized anti-CD3 without or with anti-CD28", "assay_type": "cell-based, mouse (C57BL/6)", "description": "Proliferation assays were done with anti-CD3 (145-2Cl 1) without or with anti-CD28 (37.51). Antibodies in 50 μl of PBS/well were used to coat 96-well tissue culture plates (Costar) overnight at 4° C. Antibodies were shaken off and wells washed 1× with 150 μl of RPMI complete media prior to their use in proliferation assays. Experimental wells were pulsed with 0.5 μCi/well ^3H-thymidine (ICN, Costa Mesa, Calif.) for 10-12 hours at 24-36 or 36-48 hours of the culture cycle. Cyclosporine A (Sigma Chemical Co.; St. Louis, Mo.) dissolved in 200 proof ethanol and CH-223191 (Calbiochem; San Diego, Calif.) dissolved in dimethylsulfoxide were used at indicated concentrations. The no treatment controls in each experiment included vehicle controls for both ethanol and dimethylsulfoxide.\nFIGS. 6A and 6B show proliferation plots of CD8bm1 (▪) and CD8bm12-1 (●), both activated by immobilized anti-CD3 and exposed to a full range of cyclosporine A (the results shown in FIGS. 6A and 6B result from two separate experiments conducted).", "note": "Entries after “also recorded” stand apart in the source; their conditions may differ.", "data": [{"smiles": "Cc1ccccc1N=Nc1ccc(NC(=O)c2ccnn2C)c(C)c1", "note": "[CH-223191]", "values": [{"measurement": "effect on proliferation of CD8bm12-1", "setting": "media with 1 ug/ml CsA, anti-CD3, CH-223191 3 uM", "result": "no effect"}, {"measurement": "effect on proliferation of CD8bm12-1", "setting": "media with 1 ug/ml CsA, anti-CD3, CH-223191 10 uM", "result": "moderate inhibitory effect"}, {"measurement": "effect on proliferation of CD8bm12-1", "setting": "media with 1 ug/ml CsA, anti-CD3, CH-223191 30 uM", "result": "dramatic inhibitory effect; also recorded: completely blocked"}, {"measurement": "effect on proliferation of CD8bm12-1", "setting": "media with 1 ug/ml CsA, anti-CD3 and anti-CD28, CH-223191 30 uM", "result": "completely blocked proliferation"}, {"measurement": "effect on proliferation of CD8bm12-1", "setting": "media without CsA, anti-CD3, CH-223191 at 30 uM, 10 uM or 3 uM", "result": "no discernable negative effect"}, {"measurement": "effect on proliferation of CD8bm12-1", "setting": "media without CsA, anti-CD3 and anti-CD28, CH-223191", "result": "little discernable effect"}]}]}
